# Source: US8563551B2, “Method for preventing or treating a disease related to the glucocorticoid receptor” (Santen Pharmaceutical Co., Ltd., priority 2006, dated 2013)
# Biological target: T1, Recombinant human GR (Homo sapiens, UniProt P04150)
# T1 construct: purchased Invitrogen P2816
# T1 sequence (P04150 1-777): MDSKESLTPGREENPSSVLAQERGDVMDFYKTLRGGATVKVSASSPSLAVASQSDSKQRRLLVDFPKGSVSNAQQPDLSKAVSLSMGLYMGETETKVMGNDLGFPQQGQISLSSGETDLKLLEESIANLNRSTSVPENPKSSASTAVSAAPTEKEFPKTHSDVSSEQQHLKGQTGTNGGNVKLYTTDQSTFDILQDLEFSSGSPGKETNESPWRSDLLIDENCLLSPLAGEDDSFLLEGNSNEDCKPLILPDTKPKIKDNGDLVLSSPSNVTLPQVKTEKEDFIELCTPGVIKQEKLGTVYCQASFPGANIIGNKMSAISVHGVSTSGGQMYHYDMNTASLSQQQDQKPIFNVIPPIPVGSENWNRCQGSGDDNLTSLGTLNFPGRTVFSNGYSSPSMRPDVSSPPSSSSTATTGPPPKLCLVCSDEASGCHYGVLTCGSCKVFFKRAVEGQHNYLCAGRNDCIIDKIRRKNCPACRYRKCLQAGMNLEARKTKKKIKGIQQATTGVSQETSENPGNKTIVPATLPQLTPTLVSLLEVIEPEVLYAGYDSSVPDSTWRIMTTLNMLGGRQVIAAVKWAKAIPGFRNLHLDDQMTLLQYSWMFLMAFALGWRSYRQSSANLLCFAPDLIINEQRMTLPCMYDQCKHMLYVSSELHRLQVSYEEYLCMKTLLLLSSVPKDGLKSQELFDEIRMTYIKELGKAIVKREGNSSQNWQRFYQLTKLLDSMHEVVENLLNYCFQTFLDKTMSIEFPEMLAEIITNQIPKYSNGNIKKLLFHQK
# Experiment: GR competitor assay (receptor competitor assay by fluorescence polarization, Invitrogen kit P2816)
# Details: 20 μM test compound solution (10 μL per well plus 5 μL 4×GS1 and 5 μL 4×GR); relative to 2 mM dexamethasone positive control; ratios of 100% or more are indicated by 100%; read-out: GR Binding ratio (%)
# Protocol: In order to evaluate a binding activity to GR, a receptor competitor assay was carried out by a fluorescence polarization method. In the assay, a GR competitor assay kit (manufactured by Invitrogen, cat No. P2816) was used, and a procedure was carried out according to the protocol attached to the kit. Hereinafter, the specific method will be described.
# GR screening buffer: A buffer containing 10 mM potassium phosphate (pH 7.4), 20 mM sodium molybdate (Na2MoO4), 0.1 mM ethylene diamine tetraacetic acid (EDTA), 5 mM dithiothreitol (DTT), 0.1 mM stabilizing peptide and 2% dimethylsulfoxide was prepared.
# 4×GS1 solution: Fluormone™ GS1, which is a fluorescent glucocorticoid ligand, was diluted with GR screening buffer, whereby a 4 nM solution was prepared.
# 4×GR solution: Recombinant human GR was diluted with GR screening buffer, whereby a 16 nM solution was prepared.
# After a test compound was dissolved in dimethylsulfoxide, the resulting solution was diluted with GR screening buffer, whereby a 20 μM test compound solution was prepared.
# 1) The test compound solution was added in an amount of 10 μL into each well of a 384-well plate, and then, 4×GS1 solution and 4×GR solution were added in an amount of 5 μL into each well, respectively.
# 2) The plate was incubated in a dark place at room temperature for 2 to 4 hours.
# 3) By using a multimode plate reader, Analyst™ HT (manufactured by LJL Biosystems), fluorescence polarization of each well was measured. As the blank, a well containing GR screening buffer in place of the test compound and 4×GS1 solution was used.
# 4) The same procedure as that in the above 1) to 3) was carried out except that GR screening buffer was used in place of the test compound solution, and the obtained result was taken as the negative control.
# 5) The same procedure as that in the above 1) to 3) was carried out except that 2 mM dexamethasone was used in place of the test compound solution, and the obtained result was taken as the positive control.
# A GR binding ratio (%) was calculated from the following equation. GR binding ratio(%)=100×[1−(fluorescence polarization of test compound solution−fluorescence polarization of positive control solution)/(fluorescence polarization of negative control solution fluorescence polarization of positive control solution)] (Test Results and Discussion)
row,Structure (SMILES),inhibition at 20 µM (stock)
1,"COc1cc(OC(=O)c2cccc(C(C)=O)c2)ccc1-c1ccc2c(c1COC(=O)c1ccc(C)s1)C(C)=CC(C)(C)N2 [Compound 1-27, 6-[4-(3-Acetylbenzoyloxy)-2-methoxyphenyl]-5-(5-methylthiophen-2-ylcarbonyloxymethyl)-2,2,4-trimethyl-1,2-dihydroquinoline]",89%
2,"COc1cc(OC(=O)c2cccs2)ccc1-c1ccc2c(c1COC(=O)c1ccc(C)s1)C(C)=CC(C)(C)N2 [Compound 1-29, 6-[2-Methoxy-4-(thiophen-2-ylcarbonyloxy)phenyl]-5-(5-methylthiophen-2-ylcarbonyloxymethyl)-2,2,4-trimethyl-1,2-dihydroquinoline]",96%
3,"COc1cc(OC(=O)c2cccnc2C)ccc1-c1ccc2c(c1COC(=O)c1ccc(C)s1)C(C)=CC(C)(C)N2 [Compound 1-30, 6-[2-Methoxy-4-(2-methylpyridin-3-ylcarbonyloxy)phenyl]-5-(5-methylthiophen-2-ylcarbonyloxymethyl)-2,2,4-trimethyl-1,2-dihydroquinoline]",96%
4,"COc1cc(OC(=O)c2sccc2Cl)ccc1-c1ccc2c(c1COC(=O)c1ccc(C)s1)C(C)=CC(C)(C)N2 [Compound 1-31, 6-[4-(3-Chlorothiophen-2-ylcarbonyloxy)-2-methoxyphenyl]-5-(5-methylthiophen-2-ylcarbonyloxymethyl)-2,2,4-trimethyl-1,2-dihydroquinoline]",88%
5,"COc1cc(OC(=O)c2cscn2)ccc1-c1ccc2c(c1COC(=O)c1ccc(C)s1)C(C)=CC(C)(C)N2 [Compound 1-32, 6-[2-Methoxy-4-(thiazol-4-ylcarbonyloxy)phenyl]-5-(5-methylthiophen-2-ylcarbonyloxymethyl)-2,2,4-trimethyl-1,2-dihydroquinoline]",99%
6,"COc1cc(OC(=O)c2ccncc2)ccc1-c1ccc2c(c1COC(=O)c1ccc(C)s1)C(C)=CC(C)(C)N2 [Compound 1-33, 6-[2-Methoxy-4-(pyridin-4-ylcarbonyloxy)phenyl]-5-(5-methylthiophen-2-ylcarbonyloxymethyl)-2,2,4-trimethyl-1,2-dihydroquinoline]",96%
7,"COc1ccc(C(=O)OCc2c(-c3ccc(OC(=O)c4cccnc4)cc3OC)ccc3c2C(C)=CC(C)(C)N3)cc1 [Compound 1-34, 5-(4-Methoxybenzoyloxymethyl)-6-[2-methoxy-4-(pyridin-3-ylcarbonyloxy)phenyl]-2,2,4-trimethyl-1,2-dihydroquinoline]",95%
8,"COc1ccc(C(=O)OCc2c(-c3ccc(OC(=O)c4ccccc4Cl)cc3OC)ccc3c2C(C)=CC(C)(C)N3)cc1 [Compound 1-35, 6-[4-(2-Chlorobenzoyloxy)-2-methoxyphenyl]-5-(4-methoxybenzoyloxymethyl)-2,2,4-trimethyl-1,2-dihydroquinoline]",100%
9,"COc1ccc(C(=O)OCc2c(-c3ccc(OC(=O)c4ccco4)cc3OC)ccc3c2C(C)=CC(C)(C)N3)cc1 [Compound 1-36, 6-[4-(Furan-2-ylcarbonyloxy)-2-methoxyphenyl]-5-(4-methoxybenzoyloxymethyl)-2,2,4-trimethyl-1,2-dihydroquinoline]",100%
10,"COc1cc(OC(=O)c2cccnc2)ccc1-c1ccc2c(c1COC(=O)c1ccc(Br)s1)C(C)=CC(C)(C)N2 [Compound 1-37, 5-(5-Bromothiophen-2-ylcarbonyloxymethyl)-6-[2-methoxy-4-(pyridin-3-ylcarbonyloxy)phenyl]-2,2,4-trimethyl-1,2-dihydroquinoline]",100%
11,"COc1cc(OC(=O)c2ccco2)ccc1-c1ccc2c(c1COC(=O)c1ccc(Br)s1)C(C)=CC(C)(C)N2 [Compound 1-39, 5-(5-Bromothiophen-2-ylcarbonyloxymethyl)-6-[4-(furan-2-ylcarbonyloxy)-2-methoxyphenyl]-2,2,4-trimethyl-1,2-dihydroquinoline]",100%
12,"COc1cc(OC(=O)C(C)C)ccc1-c1ccc2c(c1COC(=O)c1ccc(C)s1)C(C)=CC(C)(C)N2 [Compound 1-43, 6-(4-Isopropylcarbonyloxy-2-methoxyphenyl)-5-(5-methylthiophen-2-ylcarbonyloxymethyl)-2,2,4-trimethyl-1,2-dihydroquinoline]",100%
13,"COc1cc(OC(=O)c2ccccc2OC(C)=O)ccc1-c1ccc2c(c1COC(=O)c1ccc(C)s1)C(C)=CC(C)(C)N2 [Compound 1-44, 6-[4-(2-Acetoxybenzoyloxy)-2-methoxyphenyl]-5-(5-methylthiophen-2-ylcarbonyloxymethyl)-2,2,4-trimethyl-1,2-dihydroquinoline]",96%
14,"COc1cc(OC(=O)c2cccnc2OC)ccc1-c1ccc2c(c1COC(=O)c1ccc(C)s1)C(C)=CC(C)(C)N2 [Compound 1-45, 6-[2-Methoxy-4-(2-methoxypyridin-3-ylcarbonyloxy)phenyl]-5-(5-methylthiophen-2-ylcarbonyloxymethyl)-2,2,4-trimethyl-1,2-dihydroquinoline]",100%
15,"COc1cc(OC(=O)c2cccc(C)c2)ccc1-c1ccc2c(c1COC(=O)c1ccc(C)s1)C(C)=CC(C)(C)N2 [Compound 1-46, 6-[2-Methoxy-4-(3-methylbenzoyloxy)phenyl]-5-(5-methylthiophen-2-ylcarbonyloxymethyl)-2,2,4-trimethyl-1,2-dihydroquinoline]",99%
16,"COc1cc(OC(=O)c2ccc(C)cc2)ccc1-c1ccc2c(c1COC(=O)c1ccc(C)s1)C(C)=CC(C)(C)N2 [Compound 1-47, 6-[2-Methoxy-4-(4-methylbenzoyloxy)phenyl]-5-(5-methylthiophen-2-ylcarbonyloxymethyl)-2,2,4-trimethyl-1,2-dihydroquinoline]",96%
17,"COc1cc(OC(=O)c2ccc(F)cc2)ccc1-c1ccc2c(c1COC(=O)c1ccc(C)s1)C(C)=CC(C)(C)N2 [Compound 1-48, 6-[4-(4-Fluorobenzoyloxy)-2-methoxyphenyl]-5-(5-methylthiophen-2-ylcarbonyloxymethyl)-2,2,4-trimethyl-1,2-dihydroquinoline]",96%
18,"COc1cc(OC(=O)c2ccccc2[N+](=O)[O-])ccc1-c1ccc2c(c1COC(=O)c1ccc(C)s1)C(C)=CC(C)(C)N2 [Compound 1-49, 6-[2-Methoxy-4-(2-nitrobenzoyloxy)phenyl]-5-(5-methylthiophen-2-ylcarbonyloxymethyl)-2,2,4-trimethyl-1,2-dihydroquinoline]",98%
19,"COc1cc(OC(=O)c2occc2C)ccc1-c1ccc2c(c1COC(=O)c1ccc(C)s1)C(C)=CC(C)(C)N2 [Compound 1-50, 6-[2-Methoxy-4-(3-methylfuran-2-ylcarbonyloxy)phenyl]-5-(5-methylthiophen-2-ylcarbonyloxymethyl)-2,2,4-trimethyl-1,2-dihydroquinoline]",90%
20,"COc1cc(OS(=O)(=O)CCC(F)(F)F)ccc1-c1ccc2c(c1COC(=O)c1ccc(C)s1)C(C)=CC(C)(C)N2 [Compound 2-1, 6-[2-Methoxy-4-(3,3,3-trifluoropropylsulfonyloxy)phenyl]-5-(5-methylthiophen-2-ylcarbonyloxymethyl)-2,2,4-trimethyl-1,2-dihydroquinoline]",97%
21,"CCCS(=O)(=O)Oc1ccc(-c2ccc3c(c2COC(=O)c2ccc(C)s2)C(C)=CC(C)(C)N3)c(OC)c1 [Compound 2-2, 6-(2-Methoxy-4-propylsulfonyloxyphenyl)-5-(5-methylthiophen-2-ylcarbonyloxymethyl)-2,2,4-trimethyl-1,2-dihydroquinoline]",99%
